Data taken from ChEMBL document CHEMBL1201862, “PubChem BioAssay data set” (2004).
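Briefly, cells in 96-well plates were exposed to five compound concentrations for 48 h, and endpoints were estimated by linear interpolation. GI50 marks 50% less growth.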 The source made the active and inactive calls. Rule as the data show it: active = GI50 up to about 1.1 µM and inactive = higher. Peptide text beside a SMILES is read from it. * marks the point of attachment. Cbz = O=C(OCc1ccccc1)*; CH2Cl = ClC*

Legend:
Test in all cases: NCI anticancer screen, dose series, 48 h
[1] = system: NCI/ADR-RES
[2] = system: IGROV-1
[3] = system: SK-MEL-28
[4] = system: COLO 205
[5] = system: 786-0
[6] = system: SK-MEL-2
[7] = system: OVCAR-5
[8] = system: NCI-H522
[9] = system: PC-3
[10] = system: DU-145
[11] = system: OVCAR-8
[12] = system: SNB-19
[13] = system: SW-620
[14] = system: SF-268
[15] = system: K562
[16] = system: MDA-MB-435
[17] = system: CCRF-CEM
[18] = system: OVCAR-4
[19] = system: RPMI-8226
[20] = system: M14

Compound	GI50 [1]	GI50 [2]	GI50 [3]	GI50 [4]	GI50 [5]	GI50 [6]	GI50 [7]	GI50 [8]	GI50 [9]	GI50 [10]	GI50 [11]	GI50 [12]	GI50 [13]	GI50 [14]	GI50 [15]	GI50 [16]	GI50 [17]	GI50 [18]	GI50 [19]	GI50 [20]
CCC(c1ccc(OC)cc1)C1NC(=S)NC1=O (stereo not given)	> 50 µM (inactive)	> 50 µM (inactive)	> 50 µM (inactive)	> 50 µM (inactive)	> 50 µM (inactive)	> 50 µM (inactive)	> 50 µM (inactive)	> 50 µM (inactive)	> 50 µM (inactive)	> 50 µM (inactive)	> 50 µM (inactive)	> 50 µM (inactive)	> 50 µM (inactive)	> 50 µM (inactive)	17.5 µM (inactive)	> 50 µM (inactive)	> 50 µM (inactive)	> 50 µM (inactive)	> 50 µM (inactive)	> 50 µM (inactive)
Nc1nc2ccc(Sc3ccc4nc(N)[nH]c(=O)c4c3)cc2c(=O)[nH]1	> 100 µM (inactive)	61.1 µM (inactive)	> 100 µM (inactive)	> 100 µM (inactive)	> 100 µM (inactive)	> 100 µM (inactive)	> 100 µM (inactive)	> 100 µM (inactive)	> 100 µM (inactive)	> 100 µM (inactive)	> 100 µM (inactive)	> 100 µM (inactive)	> 100 µM (inactive)	> 100 µM (inactive)	> 100 µM (inactive)	> 100 µM (inactive)	> 100 µM (inactive)	> 100 µM (inactive)	> 100 µM (inactive)	> 100 µM (inactive)
CC(C)CC(NC(=O)OCc1ccccc1)C(=O)NC(Cc1ccccc1)C(=O)CCl (stereo not drawn) (Cbz-Leu-Phe-CH2Cl; configuration not given here)	2.44 µM (inactive)	2 µM (inactive)	1.85 µM (inactive)	2.93 µM (inactive)	1.66 µM (inactive)	2.05 µM (inactive)	3.71 µM (inactive)	1.38 µM (inactive)	4.76 µM (inactive)	> 100 µM (inactive)	2.08 µM (inactive)	23.6 µM (inactive)	1.57 µM (inactive)	4.86 µM (inactive)	0.7 µM (active)	2.34 µM (inactive)	0.204 µM (active)	2.08 µM (inactive)	1.61 µM (inactive)	1.79 µM (inactive)
